# Source: paper PMC10850047, “Exploring the impact of PEGylation on pharmacokinetics: a size-dependent effect of polyethylene glycol on prostate-specific membrane antigen inhibitors” (EJNMMI Research, 2024)
# Read-outs that look alike come from different tables or passages of the source.
# Legend:
# [1] = test system: PC3-PIP tumor-bearing balb/c-nu mice; assay: Biodistribution in PC3-PIP tumor model; assay type: in vivo; settings: mean ± SD (n=5)
# Experimental: All animal experiments were performed with the approval of the institutional animal ethics committee. Male NOD/SCID mice (5 − 6 weeks old) implanted with LNCaP cells were used for imaging and biodistribution experiments as previously described. The mice were imaged or used in biodistribution studies once the tumor grew to 8 − 10 mm in diameter over a period of 4 − 5 weeks. At the same time, male balb/c-nu mice (5 − 6 weeks old) implanted with PC3-PIP cells were used as an alternative tumor model for imaging and biodistribution experiments.
# To conduct biodistribution studies, male mice bearing LNCaP or PC3-PIP tumors with an average body weight of approximately 20 ± 5 g and a tumor diameter of 8 − 10 mm were administered a bolus injection of 2.5 MBq of the corresponding radioligand via the tail vein. After 30, 60, and 120 min, the mice were anesthetized with isoflurane and subsequently euthanized by CO2 asphyxiation. Blood was drawn, and the organs of interest were promptly harvested, blotted dry, and weighed. The radioactivity of the collected mouse organs was measured and expressed as the percentage of the injected dose per gram of tissue (%ID/g). Each group consisted of at least five mice.
# [2] = Radiochemical stability in PBS at 37 °C; assay type: physicochemical; settings: 2 h
# Experimental: (§1) The radiochemical purity of samples incubated in PBS at each time point was determined using RP-HPLC. For the samples in human serum, a pretreatment step was applied. Briefly, the human serum samples underwent precipitation with acetonitrile, and the radiochemical purity of each supernatant aliquot was determined using RP-HPLC after centrifugation for 5 min at 10,000 rpm. The experiments were performed in triplicate.
# [3] = test system: LNCaP cells; assay: Uptake and internalization in LNCaP cells; assay type: cell-based, human; settings: 120 min incubation, normalized to 10^6 cells
# Experimental: LNCaP prostate cancer cell line obtained from the American Type Culture Collection (ATCC, Manassas, VA) was used for cell affinity studies. […] The supernatant was disposed, and the cell pellet was resuspended in a culture medium, and LNCaP cells (150,000 cells/well) were counted with a hemocytometer and seeded in poly-L-lysine-coated 24-well plates used in cell binding studies. The cells were then allowed to grow at 37 °C for 48 h. PC3-PIP cells provided by Professor Xiaoyuan Chen (Singapore) require additional Puromycin (2 µg/ml) in addition to the appealed culture conditions.
# [4] = test system: LNCaP tumor-bearing NOD/SCID mice; settings: mouse, in vivo
# [5] = biological target: T1, PSMA (Homo sapiens, UniProt Q04609); assay: Competitive cell binding assay against [68Ga]Ga-PSMA-11 on LNCaP cells; settings: competition with [68Ga]Ga-PSMA-11, natGa-labeled standards, 1 h 37 °C
# T1 construct: host or cells: LNCaP
# Experimental: LNCaP prostate cancer cell line obtained from the American Type Culture Collection (ATCC, Manassas, VA) was used for cell affinity studies. The cells were grown in a meilunbio RPMI 1640 medium (ATCC modified) supplemented with 10% fetal bovine serum and 1% streptomycin/penicillin (Thermo Fisher Scientific, USA) at 37 °C in a humidified 5% CO2 atmosphere. Two days (48 ± 2 h) prior to in vitro experiments, the cells were harvested using trypsin-ethylenediaminetetraacetic acid (EDTA; 0.25% trypsin, 0.02% EDTA) in PBS and centrifuged. The supernatant was disposed, and the cell pellet was resuspended in a culture medium, and LNCaP cells (150,000 cells/well) were counted with a hemocytometer and seeded in poly-L-lysine-coated 24-well plates used in cell binding studies. The cells were then allowed to grow at 37 °C for 48 h. PC3-PIP cells provided by Professor Xiaoyuan Chen (Singapore) require additional Puromycin (2 µg/ml) in addition to the appealed culture conditions. Detailed information regarding uptake and internalization experiments can be found in the previous report.
# In order to determine the binding affinity, a competitive cell binding assay was performed. […] The total radioactivity in each well was measured with a gamma counter. […]
# [6] = Radiochemical stability in human serum at 37 °C; assay type: in vitro ADME; settings: 2 h
# Experimental: as §1
# [7] = test system: PC3-PIP tumors; assay: Micro-PET/CT blocking experiment with 2-PMPA, PC3-PIP tumor model; assay type: in vivo, mice; settings: identical methodology
# Experimental: (§2) To perform imaging studies, the male mice bearing LNCaP tumors were injected with the corresponding radioligand (~ 2.5 MBq; 100 μL) via their tail veins. The micro-PET/CT scans (Inveon PET, Siemens) were conducted at 10, 30, 60, and 120 min after injection. The mice were anesthetized and maintained under 2% isoflurane in oxygen at a flow rate of 2 L/min during the 2-h imaging study. First, a 10 min static PET imaging acquisition was carried out, followed by a 10 min CT scan for localization and attenuation correction. Data analysis was performed using Inveon Research Workplace software. For PC3-PIP tumor model, the imaging studies were performed with micro-PET/SPECT/CT (Inliview-3000B, Novel Medical). Data analysis was performed using Nmsoft-Al ws v1.7–1 software.
# (§3) To evaluate the specificity of radioligands, blocking experiments were performed. In brief, 40 nmol of the PSMA inhibitor 2-PMPA was administered, followed by the injection of approximately 2.6 MBq of radioligands after 30 min. Then a static scan of micro-PET/CT was performed 60 min later.
# [8] = test system: LNCaP tumors; assay: Micro-PET/CT blocking experiment with 2-PMPA, LNCaP tumor model; assay type: in vivo, mice; settings: 40 nmol 2-PMPA 30 min before radioligand, static scan 60 min later
# Experimental: as §2, §3
# T1 sequence (Q04609 whole entry): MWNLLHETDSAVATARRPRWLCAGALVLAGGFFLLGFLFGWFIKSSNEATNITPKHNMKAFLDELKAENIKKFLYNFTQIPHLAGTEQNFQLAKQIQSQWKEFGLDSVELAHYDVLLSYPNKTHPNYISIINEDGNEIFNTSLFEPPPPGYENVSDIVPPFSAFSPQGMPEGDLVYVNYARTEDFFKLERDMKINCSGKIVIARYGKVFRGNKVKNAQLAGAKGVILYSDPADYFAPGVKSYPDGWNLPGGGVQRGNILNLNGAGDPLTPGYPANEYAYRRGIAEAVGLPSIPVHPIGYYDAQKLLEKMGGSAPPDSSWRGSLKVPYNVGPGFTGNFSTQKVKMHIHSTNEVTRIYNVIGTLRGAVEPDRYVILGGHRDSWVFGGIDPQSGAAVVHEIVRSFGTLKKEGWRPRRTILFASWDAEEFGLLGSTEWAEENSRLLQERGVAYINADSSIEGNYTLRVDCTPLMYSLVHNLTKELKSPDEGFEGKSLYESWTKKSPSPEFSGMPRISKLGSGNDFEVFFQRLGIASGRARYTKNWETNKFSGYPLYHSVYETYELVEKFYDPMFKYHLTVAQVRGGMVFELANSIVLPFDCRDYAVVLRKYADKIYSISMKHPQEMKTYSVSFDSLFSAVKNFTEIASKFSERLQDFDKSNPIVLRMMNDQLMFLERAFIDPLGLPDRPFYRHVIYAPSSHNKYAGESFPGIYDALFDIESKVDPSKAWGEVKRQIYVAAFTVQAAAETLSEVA
structure (smiles),measurement,setting,value
O=C(O)CC[C@H](NC(=O)N[C@@H](CCCCN(CC(=O)NCCOCCOCCOCCOCCNC(=O)CN1CCN(CC(=O)O)CCN(CC(=O)O)CCN(CC(=O)O)CC1)C(=O)C1c2ccccc2-c2ccccc21)C(=O)O)C(=O)O.[68Ga] [[^68Ga]Ga-PP4-WD],Blood uptake,[1]; 30 min p.i.,1.07±0.47 %ID/g
same,Bone uptake,[1]; 30 min p.i.,0.41±0.17 %ID/g
same,Brain uptake,[1]; 30 min p.i.,0.05±0.04 %ID/g
same,Heart uptake,[1]; 30 min p.i.,0.39±0.26 %ID/g
same,Kidney uptake,[1]; 30 min p.i.,17.85±4.66 %ID/g
same,Liver uptake,[1]; 30 min p.i.,0.36±0.14 %ID/g
same,Lung uptake,[1]; 30 min p.i.,0.99±0.22 %ID/g
same,Muscle uptake,[1]; 30 min p.i.,0.36±0.25 %ID/g
same,Salivary uptake,[1]; 30 min p.i.,0.46±0.16 %ID/g
same,Small int (small intestine) uptake,[1]; 30 min p.i.,0.33±0.15 %ID/g
same,Spleen uptake,[1]; 30 min p.i.,1.06±0.89 %ID/g
same,Stomach uptake,[1]; 30 min p.i.,0.44±0.18 %ID/g
same,Tumor uptake,[1]; 30 min p.i.,26.49±3.34 %ID/g
same,Blood uptake,[1]; 60 min p.i.,0.19±0.05 %ID/g
same,Bone uptake,[1]; 60 min p.i.,0.11±0.02 %ID/g
same,Brain uptake,[1]; 60 min p.i.,0.02±0.01 %ID/g
same,Heart uptake,[1]; 60 min p.i.,0.06±0.01 %ID/g
same,Kidney uptake,[1]; 60 min p.i.,2.96±1.04 %ID/g
same,Liver uptake,[1]; 60 min p.i.,0.16±0.03 %ID/g
same,Lung uptake,[1]; 60 min p.i.,0.23±0.05 %ID/g
same,Muscle uptake,[1]; 60 min p.i.,0.04±0.02 %ID/g
same,Salivary uptake,[1]; 60 min p.i.,0.17±0.09 %ID/g
same,Small int (small intestine) uptake,[1]; 60 min p.i.,0.1±0.04 %ID/g
same,Spleen uptake,[1]; 60 min p.i.,0.22±0.05 %ID/g
same,Stomach uptake,[1]; 60 min p.i.,0.09±0.02 %ID/g
same,Tumor uptake,[1]; 60 min p.i.,27.43 ± 1.81 %ID/g
same,Blood uptake,[1]; 120 min p.i.,0.17±0.04 %ID/g
same,Bone uptake,[1]; 120 min p.i.,0.08±0.03 %ID/g
same,Brain uptake,[1]; 120 min p.i.,0.01±0.01 %ID/g
same,Heart uptake,[1]; 120 min p.i.,0.06±0.03 %ID/g
same,Kidney uptake,[1]; 120 min p.i.,1.21±0.30 %ID/g
same,Liver uptake,[1]; 120 min p.i.,0.14±0.05 %ID/g
same,Lung uptake,[1]; 120 min p.i.,0.13±0.07 %ID/g
same,Muscle uptake,[1]; 120 min p.i.,0.04±0.03 %ID/g
same,Salivary uptake,[1]; 120 min p.i.,0.08±0.03 %ID/g
same,Small int (small intestine) uptake,[1]; 120 min p.i.,0.07±0.03 %ID/g
same,Spleen uptake,[1]; 120 min p.i.,0.13±0.10 %ID/g
same,Stomach uptake,[1]; 120 min p.i.,0.06±0.03 %ID/g
same,Tumor uptake,[1]; 120 min p.i.,19.42±4.00 %ID/g
same,Radiochemical purity after incubation in PBS,[2],97%
same,Internalization in LNCaP cells,[3],9.36 ± 1.70%
same,Uptake in LNCaP cells,[3],26.30 ± 2.06%
same,Renal uptake reduced by a factor compared to [68Ga]Ga-Flu-1,[4],40
same,"Renal uptake, fold less compared to [68Ga]Ga-Flu-1",[4],tenfold
same,Bone uptake,[4]; 0.5 h,0.36±0.09 %ID/g
same,Tumor uptake,[4]; 0.5 h,33.45 ± 3.40 %ID/g
same,Bone uptake,[4]; 1 h,0.39±0.22 %ID/g
same,Tumor uptake,[4]; 1 h,39.28 ± 3.25 %ID/g
same,Bone uptake,[4]; 2 h,0.26±0.06 %ID/g
same,Tumor uptake,[4]; 2 h,25.75 ± 2.43 %ID/g
same,IC50,[5],8.06 ± 0.91 nM
same,Radiochemical purity after incubation in human serum,[6],96.83 ± 0.87%
same,Outcome of blocking imaging with 2-PMPA,[7],in concordance with those observed in the LNCaP tumor model
same,Radioactivity upon blocking with 2-PMPA,[8],substantially reduced radioactivity
